Results taken from patent US20050170022A1, “Extracts of blueberries with anti-oxidant and anti-cancer properties” (priority 2001, published 2005).

Assays:
[1] = Rancimat test, oxidative stability of lard; conditions: for Induction Time / Anti-oxidant Index: lard samples; for Anti-oxidant Index: lard negative control = 1.00
Experimental: The potential anti-oxidative properties of the seven compounds was also tested. Experiments were performed using the Rancimat method, a common method for measurement of anti-oxidant activity of both synthetic and natural anti-oxidants. The method is based on measuring changes in electrical conductivity of water caused by the formation of short-chain compounds when fats and oils are oxidized under elevated temperature and accelerated aeration. Using lard samples, the effects of each of the seven compounds on the oxidative stability of lard was determined. The anti-oxidative activity levels of the compounds isolated from blueberry are shown below in Table 1. The levels of anti-oxidant activity can be compared with a known anti-oxidant compound BHT.

HL-60 cells = test: Cytotoxicity in human leukemia cells (HL-60), tritiated thymidine uptake; type: cell-based; conditions: for IC50, inhibition of DNA synthesis (tritiated thymidine uptake): 90 minutes at 37 C
Experimental: The structure and identification of the seven isolated compounds was then determined using NMR. […] Verification after NMR was made by comparing mass spectra with the literature and by comparing the spectra with authentic compounds using thin layer chromatography. […] Using a well-established screening assay for cytotoxicity, the compounds were tested in a human leukemia cell line (HL-60) for their ability to inhibit growth of these cells in culture. This assay is routinely used by those of skill to determine the potential anti-carcinogenic activity of chemicals where anti-carcinogenic activity is correlated with growth inhibitory activity in HL-60 cells. Uptake of tritiated thymidine into cells, a measure of the level of DNA synthesis and thus cell growth, was determined in the cells both with and without the presence of each of the seven blueberry extract compounds.
HL-60 cells were cultivated in 1.62% RPMI 1640 medium supplemented with 10% fetal calf serum and 1% penicillin-streptomycin. The concentration of the cells in the medium was kept between 2 and 10×10^5 counts/ml. Cell concentrations were counted at the beginning of each experiment with a microscope. Cells were washed without antibiotics and collected by centrifugation. The cells were then diluted to 3×10^5 counts/ml with cold medium without antibiotics. Tritiated thymidine was mixed into the cold medium at a concentration of 150 Ci/mmol. The samples to be tested were dissolved in DMSO at concentrations between 0.1 g/L and 50 ug/L. A 2 microliter sample of each concentration was added to 6 ml tubes, using triplicate tubes for reproducibility. A 1 ml sample of the HL-60 cell culture was added to each tube, […]. The tubes were incubated at 37 C for 90 minutes and then cooled over ice. Cold PBS was added to each tube and they were centrifuged at 1000 rpm for 5 minutes. The supernatant was discarded and distilled water mixed with the cells. Free and bound tritiated thymidine levels were measured by scintillation counting.

[2] = test system: human colon (HCT-8) tumor cells; conditions: cited from earlier work

Row | Compound | Induction Time [1] [h] | Anti-oxidant Index [1] | inhibition of DNA synthesis / cell growth in HL-60 cells (in words) (HL-60 cells) | IC50, inhibition of DNA synthesis (tritiated thymidine uptake) (HL-60 cells) [ppm] | cytotoxicity (in words) [2] | oxidation-inhibition activity (in words) [1]
1 | CC[C@H](CC[C@@H](C)[C@H]1CC[C@H]2[C@@H]3CC=C4C[C@@H](O[C@@H]5O[C@H](CO)[C@@H](O)[C@H](O)[C@H]5O)CC[C@]4(C)[C@H]3CC[C@]12C)C(C)C [Sitosterol-β-D-glucoside, sitosterol-β-D-glucoside] | 2.4 | 1.14 | – | – | – | –
2 | O=Cc1ccc(CO)o1 [5-Hydroxymethyl-2-furfural, 5-hydroxymethyl-2-furfural] | 2.1 | 1.00 | – | – | – | –
3 | C[C@@H]1CC[C@]2(C(=O)O)CC[C@]3(C)C(=CC[C@@H]4[C@@]5(C)CC[C@H](O)C(C)(C)[C@@H]5CC[C@]43C)[C@@H]2[C@]1(C)O [3β,19α-Dihydroxy-urs-12-en-28-oic Acid, 3β,19α-dihydroxy-urs-12-en-28-oic acid] | 2.2 | 1.05 | effectively inhibit DNA synthesis | 1 | – | –
4 | C[C@H]1[C@H](C)CC[C@]2(C(=O)O)CC[C@]3(C)C(=CC[C@@H]4[C@@]5(C)CC[C@H](O)C(C)(C)[C@@H]5CC[C@]43C)[C@H]12 [Urosolic Acid, urosolic acid] | 2.2 | – | effectively inhibit DNA synthesis | 1.5 | marginal cytotoxicity | –
5 | COc1cc(C(=O)O)cc(OC)c1O [Syringic Acid, syringic acid] | 3.1 | 1.48 | – | – | – | –
6 | O=C(O)c1cc(O)c(O)c(O)c1 [Gallic Acid, gallic acid] | 28.1 | 13.38 | – | – | – | high oxidation-inhibition activity
7 | Cc1cc(C(C)(C)C)c(O)c(C(C)(C)C)c1 [BHT, reference compound] | 5.8 | 2.76 | – | – | – | –
8 | O=C(O)c1ccc(O)c(O)c1 [Protocatechuic Acid, protocatechuic acid] | 18.5 | 8.81 | – | – | – | high oxidation-inhibition activity
